Test results reported in US5814488A (priority 1993, dated 1998).
In brackets after ≈: the same amount, converted by molar mass. Like-named read-outs stand apart in the source and are kept apart here.

Experiments:
Test in all cases: Comparison of MIC and MBC (Tables 5 and 6)
Format in all cases: cell-based
[1] = system: S. aureus
Description: (§1) […]. […] […]

[2] = system: Klebsiella pneumoniae
Description: as §1

[3] = system: Escherichia coli
Description: as §1

[4] = system: Pseudomonas sp.; details: Table 6, Pseudomonas sp., 20 strains
Description: as §1

[5] = system: Shigella; details: Table 6, 10 strains
Description: as §1

Compound: NC[C@H]1O[C@H](O[C@H]2[C@H](O)[C@@H](O[C@H]3O[C@H](CO)[C@@H](O)[C@H](N)[C@H]3O)[C@H](N)C[C@@H]2N)[C@H](O)[C@@H](O)[C@@H]1O [Kanamicin, Kanamycin]
- MBC ([1]; Staphylococcus aureus, read-out: MBC90): 64 µg/mL (≈ 132 µM)
- MBC range ([1]; Table 6, S. aureus, 31 strains, in µg/mL (unit assumed)): 0.125-128
- MBC ([2]; read-out: MBC90): 4 µg/mL (≈ 8.26 µM)
- MBC ([2]; read-out: MBC range): 0.25 to 4 µg/mL (≈ 0.516 to 8.26 µM)
- MBC ([3]; read-out: MBC90): 8 µg/mL (≈ 16.5 µM)
- MBC ([3]; read-out: MBC range): 0.5 to 128 µg/mL (≈ 1.03 to 264 µM)
- MBC ([4]; read-out: MBC90): 128 µg/mL (≈ 264 µM)
- MBC ([4]; read-out: MBC range): 2 to 256 µg/mL (≈ 4.13 to 528 µM)
- MBC ([5]; read-out: MBC90): 2 µg/mL (≈ 4.13 µM)
- MBC ([5]; read-out: MBC range): 0.5 to 4 µg/mL (≈ 1.03 to 8.26 µM)
